This is an account of results in patent US9910031B2, “Compositions and methods for modulating c-Rel-dependent cytokine production” (Synta Pharmaceuticals Corporation, priority 2003, dated 2018).

Assay [1] concerns IL-12 p40. Nature of the assay: IL-12 p40 production in human monocyte-derived dendritic cells. Format: cell-based. The conditions noted are these: up to 10 μM. Here is the method: (§1) Although c-Rel has a role in the expression of both p35 and p40 in monocytes and macrophages as well as p35 in dendritic cells (DCs), p40 expression in dendritic cells is c-Rel-independent (Grumont et al. J. Exp. Med. 2001; 194:1021-1031). If Compound 2 is acting through c-Rel, this drug should inhibit both p40 and p70 production by PBMCs. However, Compound 2 should inhibit the production of p70 (through inhibition of p35) in DCs, but should not inhibit p40 in DCs. This was tested by generating monocyte-derived dendritic cells according to the following method. Human PBMC at 1×10^7 cells/ml were suspended in serum-free DMEM and incubated for 2 hrs at 37° C. under 5% CO2. The non-adherent cells then were removed by washing with PBS. The adherent cells were cultured in RPMI-1640 medium containing rhIL-4 (100 U/ml) and rhGM-CSF (1000 U/ml) for 6-7 days. The half volume fresh media and full-volume fresh cytokines were added every other day. The cells were then primed with IFN-γ (100 U/ml) and followed by 0.01% SAC or 1 μg/ml LPS, in the presence of different concentrations of Compound 2 or other compounds. The test compounds were prepared in DMSO and the final DMSO concentration was adjusted to 0.25% in all cultures, including the compound-free control. Cell-free supernatants were taken 18 h later for the measurement of cytokines.

For a further assay, the system named is IL-12 p70. Nature of the assay: IL-12 p70 production in human monocyte-derived dendritic cells. It counts as cell-based. Particulars: IFN-γ primed then SAC or LPS. On the procedure:
as §1

Assay [2] relates to IL-12 p40. In words: IL-12 p40 inhibition after Toxoplasma antigen (STAg) versus IFN-γ/SAC stimulus. The conditions noted are these: preliminary results. It counts as cell-based. On the procedure:
Compound 2 did, in fact, inhibit p70 but not p40 production in human DCs (no inhibition at up to 10 μM Compound 2). […] Therefore, if Compound 2 is acting through c-Rel, we should not observe potent inhibition of IL-12 p40 following STAg stimulation. […] These two results further confirm that the inhibition of IL-12 production by Compound 2 is via the c-Rel pathway.

The subject of assay [3] is IL-12 p40 mRNA. Nature of the assay: Northern blot of IL-12 p40 mRNA in IFN-γ/SAC-stimulated human PBMC. Format: cell-based. Particulars: hPBMC; for IL-12 p40 mRNA accumulation: 6 h after SAC. On the procedure:
(§2) Northern blot analysis was performed to examine the mRNA levels of IL-12 p35 and p40. Human PBMC and the human monocyte cell line THP-1 cells were stimulated with IFN-γ/SAC in the presence or absence of Compound 1. Human PBMC were isolated by centrifugation using Ficoll-Paque (Pharmacia Biotech, Uppsala, Sweden) and prepared in RPMI medium supplemented with 10% fetal calf serum (FCS), 100 U/ml penicillin, and 100 μg/ml streptomycin, in a 96-well plate with 5×10^5 cells/well. The cells were then primed with IFN-γ (100 U/ml) and followed by 0.01% SAC or 1 μg/ml LPS, in the presence of different concentrations of Compound 2 or other compounds. The test compounds were prepared in DMSO and the final DMSO concentration was adjusted to 0.25% in all cultures, including the compound-free control. Cell-free supernatants were taken 18 h later for the measurement of cytokines. The THP-1 cells were obtained from American Type Culture Collection (Manassas, Va.) and were cultured in RPMI 1640 (ATCC, Manassas, Va.), supplemented with 10% FCS (ATCC, Manassas, Va.), and 1% penicillin/Streptomycin (Gibco-BRL, New York, N.Y.). Total RNA was isolated and subjected to Northern blot analysis using IL-12 p35 and p40 cDNA probes. We first examined the kinetics of mRNA accumulation in cultures of hPBMC and THP-1 cells primed with IFN-γ followed by SAC stimulation in the presence or absence of 1 μM Compound 1.
We conducted a dose-response study of the inhibitory effects of Compound 1 on IL-12 mRNA expression in IFN-γ/SAC-stimulated hPBMC. Because both IL-12 p35 and p40 mRNA levels were maximal at 6 h after the addition of SAC, this time point was selected for the dose-response analysis.

Assay [4] concerns IL-12 p40 mRNA. In words: Northern blot of IL-12 p40 mRNA in IFN-γ/SAC-stimulated THP-1 cells. Format: cell-based, human. The conditions noted are these: THP-1, IFN-γ/SAC, 1 μM Compound 1. On the procedure: as §2

The structures appear in SMILES notation.

`Cc1cccc(C=NNc2cc(N3CCOCC3)nc(OCCc3ccccn3)n2)c1` [Compound 2, N-(3-methyl-benzylidene)-N′-[6-morpholin-4-yl-2-(2-pyridin-2-yl-ethoxy)-pyrimidin-4-yl]-hydrazine]: the “p40 production in human DCs” value in the assay with IL-12 p40 [1] is listed as “no inhibition”. Besides, the “p70 production in human DCs” value with IL-12 p70 is recorded as “inhibit”. Also, the “IC50 of p40 inhibition with STAg induction relative to IFN-γ/SAC stimulus” value with IL-12 p40 [2] is reported as “approximately 1000 times”.

`C(=NNc1nc(OCCc2ccccn2)nc(N2CCOCC2)n1)c1c[nH]c2ccccc12` [Compound 1, N-(1H-indol-3-ylmethylene)-N′-[4-morpholin-4-yl-6-(2-pyridin-2-yl-ethoxy)-[1,3,5]triazin-2-yl]-hydrazine]: the “expression of the mRNA for the p40 subunit” value in the assay on IL-12 p40 mRNA [3] (1 μM Compound 1) is “reduced significantly but incompletely”. In addition, the “IL-12 p40 mRNA accumulation” value with IL-12 p40 mRNA [3] (1 nM) is “barely inhibited”; with IL-12 p40 mRNA [3] (10 nM), “maximum, though still incomplete inhibition”. In addition, the “expression of the p40 message” value in the assay with IL-12 p40 mRNA [4] is “significantly but incompletely reduced”.
